± gives the expanded uncertainty stated by the source.
Conditions: Gas, Buoyancy - hydrostatic balance with magnetic suspension - one sinker

C=C(F)C(F)(F)F [2,3,3,3-tetrafluoro-1-propene]
Conditions | mass density [kg/m3]
265.46 K, 101.2 kPa | 5.404 ± 0.069
265.48 K, 207.2 kPa | 11.507 ± 0.069
270.36 K, 101 kPa | 5.279 ± 0.066
270.38 K, 164.6 kPa | 8.792 ± 0.069
270.38 K, 250.3 kPa | 13.798 ± 0.07
275.39 K, 106.2 kPa | 5.448 ± 0.066
275.4 K, 208.6 kPa | 11.064 ± 0.068
275.42 K, 303.7 kPa | 16.657 ± 0.071
280.28 K, 103.6 kPa | 5.208 ± 0.064
280.29 K, 176.6 kPa | 9.076 ± 0.066
280.29 K, 274 kPa | 14.527 ± 0.069
280.29 K, 356.2 kPa | 19.43 ± 0.072
285.27 K, 258.8 kPa | 13.34 ± 0.067
285.28 K, 104.7 kPa | 5.162 ± 0.062
285.28 K, 164.2 kPa | 8.23 ± 0.064
285.28 K, 358.5 kPa | 19.078 ± 0.069
290.38 K, 102.2 kPa | 4.937 ± 0.061
290.39 K, 184.5 kPa | 9.113 ± 0.063
290.4 K, 308.8 kPa | 15.792 ± 0.067
290.4 K, 421.2 kPa | 22.298 ± 0.07
295.4 K, 101.7 kPa | 4.829 ± 0.06
295.4 K, 196.9 kPa | 9.565 ± 0.062
295.4 K, 400.6 kPa | 20.565 ± 0.07
295.4 K, 600.7 kPa | 32.885 ± 0.077
295.41 K, 305.3 kPa | 15.255 ± 0.065
295.41 K, 510.2 kPa | 27.092 ± 0.074
300.2 K, 668.8 kPa | 36.434 ± 0.077
300.21 K, 108 kPa | 5.039 ± 0.059
300.21 K, 218.9 kPa | 10.489 ± 0.061
300.21 K, 324 kPa | 15.933 ± 0.064
300.21 K, 439.4 kPa | 22.291 ± 0.069
300.21 K, 545.8 kPa | 28.564 ± 0.074

Reference: the NIST ThermoML archive (doi:10.1016/j.jct.2016.12.029)
